Test results reported in PubChem BioAssay (NCI).
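Dose response: 5 concentrations. Exposure: 48 h. Format: 96-well plates. Endpoint: linear interpolation; highest concentration if not reached. TGI marks complete inhibition of growth.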

Legend:
Test in all cases: NCI-60 cell line screen, 48 h
[1] = tested on: 786-0 renal
[2] = tested on: A549 NSCLC
[3] = tested on: ACHN renal
[4] = tested on: BT-549 breast
[5] = tested on: CAKI-1 renal
[6] = tested on: CCRF-CEM leukemia
[7] = tested on: COLO 205 colon
[8] = tested on: DU-145 prostate
[9] = tested on: EKVX NSCLC
[10] = tested on: HCC-2998 colon
[11] = tested on: HCT-116 colon
[12] = tested on: HCT-15 colon
[13] = tested on: HL-60(TB) leukemia
[14] = tested on: HOP-62 NSCLC
[15] = tested on: HS 578T breast
[16] = tested on: HT29 colon
[17] = tested on: IGROV1 ovarian
[18] = tested on: K-562 leukemia
[19] = tested on: LOX IMVI melanoma
[20] = tested on: M14 melanoma
[21] = tested on: MALME-3M melanoma
[22] = tested on: MCF7 breast
[23] = tested on: MDA-MB-231 breast
[24] = tested on: MDA-MB-435
[25] = tested on: MDA-N
[26] = tested on: MOLT-4 leukemia
[27] = tested on: NCI-H226 lung
[28] = tested on: NCI-H23 lung
[29] = tested on: NCI-H460 lung
[30] = tested on: NCI-H522 lung
[31] = tested on: NCI/ADR-RES ovarian
[32] = tested on: OVCAR-3 ovarian
[33] = tested on: OVCAR-4 ovarian
[34] = tested on: OVCAR-5 ovarian
[35] = tested on: OVCAR-8 ovarian
[36] = tested on: PC-3 prostate
[37] = tested on: RPMI-8226 leukemia
[38] = tested on: RXF 393 renal
[39] = tested on: SF-268 CNS
[40] = tested on: SF-295 CNS
[41] = tested on: SF-539 CNS
[42] = tested on: SK-MEL-2 melanoma
[43] = tested on: SK-MEL-28 melanoma
[44] = tested on: SK-MEL-5 melanoma
[45] = tested on: SK-OV-3 ovarian
[46] = tested on: SN12C renal
[47] = tested on: SNB-19 CNS
[48] = tested on: SNB-75 CNS
[49] = tested on: SR leukemia
[50] = tested on: SW-620 colon
[51] = tested on: T-47D breast
[52] = tested on: TK-10 renal
[53] = tested on: U251 CNS
[54] = tested on: UACC-257 melanoma
[55] = tested on: UACC-62 melanoma
[56] = tested on: UO-31 renal
[57] = tested on: A498 renal
[58] = tested on: HOP-92 NSCLC
[59] = tested on: KM12 colon

SMILES: CCOC(=O)c1c2c3c(cccc3[nH]c1=O)Sc1ncccc1-2
- TGI [1]: > 100 µM
- TGI [2]: 85.3 µM
- TGI [3]: > 100 µM
- TGI [4]: > 100 µM
- TGI [5]: 70.7 µM
- TGI [6]: > 100 µM
- TGI [7]: > 100 µM
- TGI [8]: > 100 µM
- TGI [9]: > 100 µM
- TGI [10]: > 100 µM
- TGI [11]: > 100 µM
- TGI [12]: > 100 µM
- TGI [13]: 86.4 µM
- TGI [14]: > 100 µM
- TGI [15]: > 100 µM
- TGI [16]: 94.9 µM
- TGI [17]: 61 µM
- TGI [18]: > 100 µM
- TGI [19]: > 100 µM
- TGI [20]: > 100 µM
- TGI [21]: > 100 µM
- TGI [22]: > 100 µM
- TGI [23]: > 100 µM
- TGI [24]: > 100 µM
- TGI [25]: > 100 µM
- TGI [26]: 68.5 µM
- TGI [27]: 66.5 µM
- TGI [28]: 86.3 µM
- TGI [29]: > 100 µM
- TGI [30]: 83.8 µM
- TGI [31]: > 100 µM
- TGI [32]: > 100 µM
- TGI [33]: > 100 µM
- TGI [34]: 96.6 µM
- TGI [35]: > 100 µM
- TGI [36]: 74.6 µM
- TGI [37]: 38.4 µM
- TGI [38]: 94.9 µM
- TGI [39]: > 100 µM
- TGI [40]: 95.3 µM
- TGI [41]: > 100 µM
- TGI [42]: > 100 µM
- TGI [43]: > 100 µM
- TGI [44]: 24 µM
- TGI [45]: > 100 µM
- TGI [46]: > 100 µM
- TGI [47]: > 100 µM
- TGI [48]: > 100 µM
- TGI [49]: > 100 µM
- TGI [50]: > 100 µM
- TGI [51]: > 100 µM
- TGI [52]: > 100 µM
- TGI [53]: 67.3 µM
- TGI [54]: > 100 µM
- TGI [55]: 35.2 µM
- TGI [56]: 81.5 µM

SMILES: CCCCCC(C)(C)CCC(=O)OC1OC(COC2OC(COC3OC(CO)C(O)C(O)C3O)C(O)C(O)C2O)C(O)C(O)C1O (stereo unspecified)
- TGI [1]: > 100 µM
- TGI [57]: > 100 µM
- TGI [2]: > 100 µM
- TGI [3]: > 100 µM
- TGI [4]: > 100 µM
- TGI [6]: > 100 µM
- TGI [7]: > 100 µM
- TGI [8]: > 100 µM
- TGI [9]: > 100 µM
- TGI [10]: > 100 µM
- TGI [11]: > 100 µM
- TGI [12]: > 100 µM
- TGI [13]: > 100 µM
- TGI [14]: > 100 µM
- TGI [58]: > 100 µM
- TGI [15]: > 100 µM
- TGI [16]: > 100 µM
- TGI [17]: > 100 µM
- TGI [18]: > 100 µM
- TGI [59]: > 100 µM
- TGI [19]: > 100 µM
- TGI [20]: > 100 µM
- TGI [21]: > 100 µM
- TGI [22]: > 100 µM
- TGI [23]: > 100 µM
- TGI [24]: > 100 µM
- TGI [25]: > 100 µM
- TGI [26]: > 100 µM
- TGI [27]: > 100 µM
- TGI [28]: > 100 µM
- TGI [29]: > 100 µM
- TGI [30]: > 100 µM
- TGI [31]: > 100 µM
- TGI [32]: > 100 µM
- TGI [34]: > 100 µM
- TGI [35]: > 100 µM
- TGI [36]: > 100 µM
- TGI [37]: > 100 µM
- TGI [38]: > 100 µM
- TGI [39]: > 100 µM
- TGI [40]: > 100 µM
- TGI [41]: > 100 µM
- TGI [42]: > 100 µM
- TGI [44]: > 100 µM
- TGI [45]: > 100 µM
- TGI [46]: > 100 µM
- TGI [47]: > 100 µM
- TGI [49]: > 100 µM
- TGI [50]: > 100 µM
- TGI [51]: > 100 µM
- TGI [52]: > 100 µM
- TGI [53]: > 100 µM
- TGI [54]: > 100 µM
- TGI [55]: > 100 µM
- TGI [56]: > 100 µM
